In ChEMBL document CHEMBL1151004, “The synthesis and structure activity relationships of enantiomerically pure hydroxylated oxotremorine derivatives” (Bioorg Med Chem Lett, 1992):

Legend:
[1] = biological target: Muscarinic acetylcholine receptor; test: In vitro ability to displace 3H-cis-methyltrimethylammoniummethyl-1,3-dioxolane [3H]CD) from rat cortical Muscarinic acetylcholine receptor in competition assay; assay type: protein assay
[2] = biological target: Muscarinic acetylcholine receptor; test: In vitro ability to displace [3H]quinuclidinyl benzilate [3H]QNB) from rat cortical Muscarinic acetylcholine receptor in competition assay; assay type: protein assay
[3] = Compound was evaluated for ratio of 3H-QNB, [3H]CD

Row | Compound | Ki [1] | Ki [2] | Ratio [3]
1 | O=C1C[C@H](O)CN1CC#CCN1CCCC1 | 8.56 µM | 7.5 µM | 0.9
2 | O=C1[C@H](O)CCN1CC#CCN1CCCC1 | 0.12 µM | 2.1 µM | 17
3 | O=C1C[C@@H](O)CN1CC#CCN1CCCC1 | 0.078 µM | 3 µM | 38
4 | O=C1[C@@H](O)CCN1CC#CCN1CCCC1 | 0.009 µM | 1.4 µM | 150
5 | O=C1CCCN1CC#CCN1CC[C@H](O)C1 | 0.61 µM | 1.2 µM | 2
6 | O=C1CCCN1CC#CCN1CCCC1 | – | – | 120
7 | O=C1CCCN1CC#CCN1CC[C@@H](O)C1 | 2.38 µM | 1.8 µM | 0.7
8 | C[N+](C)(C)CCOC(N)=O | – | – | 2000
